Measurements published in PubChem BioAssay AID220 (DTP/NCI, 2004).
“And” between values parts separate entries of the source, which are not always exact repeats. Identical values can stand only once. Results filed as inconclusive are left out.

Tested on: CD8F1 mice, subcutaneous mammary adenocarcinoma, T/C%
Experiment: NCI In Vivo Anticancer Drug Screen. Data for tumor model Mammary Adenocarcinoma CD8F1 (subcutaneous) in CD8F1
Settings: higher = larger tumour
How it was run: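 Ratio of treated to vehicle-control outcome, based on either survival or tumor size, in mice bearing transplantable tumors given the test compound.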

[1] = endpoint: median tumor weight (est.), dose: 12.5 mg/kg/injection, schedule: Q07DX005 (ip), vehicle: saline with Tween-80
[2] = endpoint: median tumor weight (est.), dose: 50.0 mg/kg/injection, schedule: Q07DX005 (ip), vehicle: saline with Tween-80

`CC(=O)O[C@@H]1[C@@H](O)C2=C3[C@]4(C)[C@@H]1C(C)(C)C(=O)C[C@@H]4[C@]3(O)[C@H](OC(C)=O)[C@@]1(C[C@@H]1C)C2=O` was tested, and the T/C (endpoint: median tumor weight (est.), dose: 6.25 mg/kg/injection, schedule: Q07DX005 (ip), vehicle: distilled water + Tween-80) was 98 % of control, the T/C (endpoint: median tumor weight (est.), dose: 6.25 mg/kg/injection, schedule: Q07DX005 (ip), vehicle: saline with Tween-80) was 112 % of control and the T/C (endpoint: median tumor weight (est.), dose: 12.5 mg/kg/injection, schedule: Q07DX005 (ip), vehicle: distilled water + Tween-80) was 151 % of control. The T/C [1] was 117 % of control, the T/C (endpoint: median tumor weight (est.), dose: 25.0 mg/kg/injection, schedule: Q07DX005 (ip), vehicle: distilled water + Tween-80) was 87 % of control and the T/C (endpoint: median tumor weight (est.), dose: 50.0 mg/kg/injection, schedule: Q07DX005 (ip), vehicle: distilled water + Tween-80) was 94 % of control. For the same compound, the T/C [2] was 72 % of control.
`CC[C@@]1(O)C[C@H](OC2CC(N(C)C)C(OC3CC(O)C(OC4CCC(=O)C(C)O4)C(C)O3)C(C)O2)c2c(cc3c(c2O)C(=O)c2c(O)ccc(O)c2C3=O)[C@H]1C(=O)OC` (some centres not stated) was tested, and the T/C (endpoint: mean tumor weight, dose: 0.5 mg/kg/injection, schedule: Q07DX006 (ip), vehicle: water) was 43 % of control, the T/C (endpoint: mean tumor weight, dose: 1.0 mg/kg/injection, schedule: Q07DX006 (ip), vehicle: water) was 35 % of control and the T/C (endpoint: mean tumor weight, dose: 2.0 mg/kg/injection, schedule: Q07DX006 (ip), vehicle: water) was 5 % of control. The T/C (endpoint: mean tumor weight, dose: 4.0 mg/kg/injection, schedule: Q07DX006 (ip), vehicle: water) was 17 % of control, the T/C (endpoint: median tumor weight (est.), dose: 0.5 mg/kg/injection, schedule: Q07DX005 (ip), vehicle: water) was 69 % of control and 90 % of control and the T/C (endpoint: median tumor weight (est.), dose: 1.0 mg/kg/injection, schedule: Q07DX005 (ip), vehicle: water) was 83 % of control. The T/C (endpoint: median tumor weight (est.), dose: 2.0 mg/kg/injection, schedule: Q07DX005 (ip), vehicle: water) was 37 % of control and 53 % of control, the T/C (endpoint: median tumor weight (est.), dose: 4.0 mg/kg/injection, schedule: Q07DX005 (ip), vehicle: water) was 8 % of control and 26 % of control and the T/C (endpoint: median tumor weight (est.), dose: 8.0 mg/kg/injection, schedule: Q07DX005 (ip), vehicle: water) was 1 % of control.
In the case of `C=C1C(=O)OCC1C(=O)O` (configuration not stated), the T/C (endpoint: median tumor weight change, dose: 15.62 mg/kg/injection, schedule: Q01DX001 (ip), vehicle: suspension in saline) is reported as 101 % of control, the T/C (endpoint: median tumor weight change, dose: 62.5 mg/kg/injection, schedule: Q01DX001 (ip), vehicle: suspension in saline) is reported as 89 % of control and the T/C (endpoint: median tumor weight change, dose: 125.0 mg/kg/injection, schedule: Q01DX001 (ip), vehicle: suspension in saline) is reported as 123 % of control.
For `CCCCc1ccc2nc(NC(=O)OC)[nH]c2c1`, the T/C (endpoint: mean tumor weight, dose: 12.5 mg/kg/injection, schedule: Q07DX006 (ip), vehicle: saline with Tween-80) was 196 % of control, the T/C (endpoint: mean tumor weight, dose: 100.0 mg/kg/injection, schedule: Q07DX006 (ip), vehicle: saline with Tween-80) was 120 % of control and the T/C (endpoint: mean tumor weight, dose: 200.0 mg/kg/injection, schedule: Q07DX006 (ip), vehicle: saline with Tween-80) was 161 % of control. The T/C (endpoint: mean tumor weight, dose: 400.0 mg/kg/injection, schedule: Q07DX006 (ip), vehicle: saline with Tween-80) was 67 % of control, the T/C [1] was 55 % of control and the T/C (endpoint: median tumor weight (est.), dose: 25.0 mg/kg/injection, schedule: Q07DX005 (ip), vehicle: saline with Tween-80) was 61 % of control. The T/C [2] was 122 % of control, the T/C (endpoint: median tumor weight (est.), dose: 100.0 mg/kg/injection, schedule: Q07DX005 (ip), vehicle: saline with Tween-80) was 84 % of control and the T/C (endpoint: median tumor weight (est.), dose: 200.0 mg/kg/injection, schedule: Q07DX005 (ip), vehicle: saline with Tween-80) was 49 % of control.
For `Nc1ccccc1N`, the T/C (endpoint: median tumor weight (est.), dose: 12.5 mg/kg/injection, schedule: Q07DX005 (ip), vehicle: Klucel (hydroxypropylcellulose) (HPC)) was 117 % of control, the T/C (endpoint: median tumor weight (est.), dose: 25.0 mg/kg/injection, schedule: Q07DX005 (ip), vehicle: Klucel (hydroxypropylcellulose) (HPC)) was 155 % of control and the T/C (endpoint: median tumor weight (est.), dose: 100.0 mg/kg/injection, schedule: Q07DX005 (ip), vehicle: Klucel (hydroxypropylcellulose) (HPC)) was 122 % of control. For the same compound, the T/C (endpoint: median tumor weight (est.), dose: 400.0 mg/kg/injection, schedule: Q07DX005 (ip), vehicle: Klucel (hydroxypropylcellulose) (HPC)) was 35 % of control.
For `CCc1nc(N)nc(N)c1-c1ccc(Cl)c(Cl)c1`, the T/C (endpoint: mean tumor weight (est.), dose: 40.0 mg/kg/injection, schedule: Q07DX003 (ip), vehicle: saline with Tween-80) was 107 % of control, the T/C (endpoint: mean tumor weight (est.), dose: 50.0 mg/kg/injection, schedule: Q07DX003 (ip), vehicle: saline with Tween-80) was 100 % of control and the T/C (endpoint: mean tumor weight (est.), dose: 60.0 mg/kg/injection, schedule: Q07DX003 (ip), vehicle: saline with Tween-80) was 93 % of control. The T/C (endpoint: mean tumor weight (est.), dose: 60.0 mg/kg/injection, schedule: Q07DX004 (ip), vehicle: saline with Tween-80) was 35 % of control and the T/C (endpoint: mean tumor weight (est.), dose: 80.0 mg/kg/injection, schedule: Q07DX004 (ip), vehicle: saline with Tween-80) was 50 % of control.
In the case of `OCC1OC(n2cnc3cncnc32)C(O)C1O` (configuration not stated), the T/C (endpoint: median tumor weight (est.), dose: 3.12 mg/kg/injection, schedule: Q07DX005 (ip), vehicle: saline) is reported as 114 % of control, the T/C (endpoint: median tumor weight (est.), dose: 6.25 mg/kg/injection, schedule: Q07DX005 (ip), vehicle: saline) is reported as 59 % of control and the T/C (endpoint: median tumor weight (est.), dose: 12.5 mg/kg/injection, schedule: Q07DX005 (ip), vehicle: saline) is reported as 65 % of control.
In the case of `COc1cc(Cc2nccc3cc(OC)c(OC)cc23)c(C(C)=O)c(OC)c1`, the T/C (endpoint: median tumor weight (est.), dose: 10.0 mg/kg/injection, schedule: Q07DX005 (ip), vehicle: suspension in saline) is reported as 57 % of control, the T/C (endpoint: median tumor weight (est.), dose: 20.0 mg/kg/injection, schedule: Q07DX005 (ip), vehicle: suspension in saline) is reported as 45 % of control and the T/C (endpoint: median tumor weight (est.), dose: 40.0 mg/kg/injection, schedule: Q07DX005 (ip), vehicle: suspension in saline) is reported as 46 % of control. For the same compound, the T/C (endpoint: median tumor weight (est.), dose: 80.0 mg/kg/injection, schedule: Q07DX005 (ip), vehicle: suspension in saline) was 61 % of control and the T/C (endpoint: median tumor weight (est.), dose: 160.0 mg/kg/injection, schedule: Q07DX005 (ip), vehicle: suspension in saline) was 49 % of control.
With `O=C/C(Cl)=C(/Cl)C(=O)O` the T/C (endpoint: median tumor weight (est.), dose: 2.5 mg/kg/injection, schedule: Q07DX005 (ip), vehicle: saline with Tween-80) was 190 % of control, the T/C (endpoint: median tumor weight (est.), dose: 5.0 mg/kg/injection, schedule: Q07DX005 (ip), vehicle: saline with Tween-80) was 121 % of control and the T/C (endpoint: median tumor weight (est.), dose: 10.0 mg/kg/injection, schedule: Q07DX005 (ip), vehicle: saline with Tween-80) was 245 % of control.
For `N[C@@H](Cc1ccc(N(CCCl)CCCl)cc1)C(=O)O`, the T/C (endpoint: mean tumor weight, dose: 1.25 mg/kg/injection, schedule: Q01DX009 (ip), vehicle: saline) was 10 % of control, the T/C (endpoint: mean tumor weight, dose: 2.5 mg/kg/injection, schedule: Q01DX009 (ip), vehicle: saline) was 3 % of control and the T/C (endpoint: mean tumor weight, dose: 4.0 mg/kg/injection, schedule: Q07DX006 (ip), vehicle: saline) was 12 % of control. The T/C (endpoint: mean tumor weight, dose: 5.0 mg/kg/injection, schedule: Q07DX006 (ip), vehicle: saline) was 3 % of control, the T/C (endpoint: mean tumor weight, dose: 8.0 mg/kg/injection, schedule: Q07DX006 (ip), vehicle: saline) was 1 % of control and the T/C (endpoint: median tumor weight (est.), dose: 1.0 mg/kg/injection, schedule: Q07DX005 (ip), vehicle: Klucel (hydroxypropylcellulose) (HPC)) was 91 % of control. For the same compound, the T/C (endpoint: median tumor weight (est.), dose: 1.0 mg/kg/injection, schedule: Q07DX005 (ip), vehicle: suspension in saline) was 60 % of control, the T/C (endpoint: median tumor weight (est.), dose: 2.0 mg/kg/injection, schedule: Q01DX001 (ip), vehicle: suspension in saline) was 93 % of control and 114 % of control and the T/C (endpoint: median tumor weight (est.), dose: 2.0 mg/kg/injection, schedule: Q07DX005 (ip), vehicle: Klucel (hydroxypropylcellulose) (HPC)) was 42 % of control. For the same compound, the T/C (endpoint: median tumor weight (est.), dose: 3.0 mg/kg/injection, schedule: Q07DX005 (ip), vehicle: suspension in saline) was 6 % of control, the T/C (endpoint: median tumor weight (est.), dose: 4.0 mg/kg/injection, schedule: Q01DX001 (ip), vehicle: suspension in saline) was 62 % of control and 70 % of control and the T/C (endpoint: median tumor weight (est.), dose: 4.0 mg/kg/injection, schedule: Q07DX005 (ip), vehicle: Klucel (hydroxypropylcellulose) (HPC)) was 16 % of control. The T/C (endpoint: median tumor weight (est.), dose: 4.0 mg/kg/injection, schedule: Q07DX005 (ip), vehicle: suspension in saline) was 12 % of control, the T/C (endpoint: median tumor weight (est.), dose: 5.0 mg/kg/injection, schedule: Q07DX005 (ip), vehicle: suspension in saline) was 1 % of control and the T/C (endpoint: median tumor weight (est.), dose: 5.3 mg/kg/injection, schedule: Q01DX001 (ip), vehicle: suspension in saline) was 15 % of control. For the same compound, the T/C (endpoint: median tumor weight (est.), dose: 8.0 mg/kg/injection, schedule: Q07DX005 (ip), vehicle: Klucel (hydroxypropylcellulose) (HPC)) was 9 % of control, the T/C (endpoint: median tumor weight (est.), dose: 8.0 mg/kg/injection, schedule: Q07DX005 (ip), vehicle: suspension in saline) was 1 % of control and the T/C (endpoint: median tumor weight (est.), dose: 12.0 mg/kg/injection, schedule: Q01DX001 (ip), vehicle: suspension in saline) was 7 % of control. For the same compound, the T/C (endpoint: median tumor weight (est.), dose: 16.0 mg/kg/injection, schedule: Q01DX001 (ip), vehicle: suspension in saline) was 8 % of control and 18 % of control, the T/C (endpoint: median tumor weight (est.), dose: 18.0 mg/kg/injection, schedule: Q01DX001 (ip), vehicle: suspension in saline) was 7 % of control and the T/C (endpoint: median tumor weight change, dose: 3.0 mg/kg/injection, schedule: Q01DX001 (ip), vehicle: saline) was 72 % of control. The T/C (endpoint: median tumor weight change, dose: 5.0 mg/kg/injection, schedule: Q01DX001 (ip), vehicle: saline) was 4 % of control, the T/C (endpoint: median tumor weight change, dose: 10.0 mg/kg/injection, schedule: Q01DX001 (ip), vehicle: saline) was -6 % of control and the T/C (endpoint: median tumor weight change, dose: 20.0 mg/kg/injection, schedule: Q01DX001 (ip), vehicle: saline) was -82 % of control.
